# Patent US11453674B2, “Heterocyclic compound, preparation method and use thereof in medicine” (SUZHOU SINOVENT PHARMACEUTICALS CO., LTD., priority 2019, dated 2022)
# Target: T1, hURAT1 (Homo sapiens, UniProt Q96S37)
# T1 construct: expressed in transfected cells
# T1 sequence (Q96S37 1-553): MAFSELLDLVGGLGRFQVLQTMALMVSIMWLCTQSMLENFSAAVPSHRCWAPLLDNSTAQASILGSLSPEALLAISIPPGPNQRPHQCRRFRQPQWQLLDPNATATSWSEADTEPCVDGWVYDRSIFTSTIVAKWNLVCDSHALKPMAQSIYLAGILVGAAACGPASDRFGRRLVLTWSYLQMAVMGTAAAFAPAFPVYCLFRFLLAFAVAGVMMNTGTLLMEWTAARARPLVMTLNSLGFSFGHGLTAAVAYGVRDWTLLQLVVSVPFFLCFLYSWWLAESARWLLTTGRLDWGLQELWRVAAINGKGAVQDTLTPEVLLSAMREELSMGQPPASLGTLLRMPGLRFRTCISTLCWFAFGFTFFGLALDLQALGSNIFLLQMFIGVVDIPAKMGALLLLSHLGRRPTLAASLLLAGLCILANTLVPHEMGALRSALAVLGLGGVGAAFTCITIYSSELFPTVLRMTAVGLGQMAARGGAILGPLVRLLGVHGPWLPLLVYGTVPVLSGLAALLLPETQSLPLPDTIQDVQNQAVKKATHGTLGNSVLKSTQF
# Assay: Inhibition of 14C-uric acid uptake by hURAT1 in HEK293-transfected cells
# Format: cell-based
# Details: HEK-293T cells stably expressing hURAT1, 14C-uric acid uptake, 5 min at 37° C.
# Method: 1. Cell Culture and Inoculation
# 2) When the cells covered 80% of the culture medium, the culture medium was removed. The cells were washed with PBS once, followed by digestion with pancreatin-EDTA. After detachment, the cells were added with a culture medium, exfoliated by pipetting, and centrifuged for harvesting. The harvested cells were added with a culture medium and mixed well to give a cell suspension.
# 3) The cell density was adjusted to 3×10^5 cells/mL, transferred into a white-wall, clear-bottom, 96-well cell culture plate with 100 μL/well, and incubated for 12-24 h.
# 1) A 20 mM stock solution of the compound was prepared with DMSO. Then the stock solution was diluted to a starting concentration of 2 mM with DMSO.
# 2) The solution was serially 4-fold diluted with DMSO from […] to the 10th concentration on a 96-well plate serving as the 100× plate, and respective quality controls were prepared.
# 3) The solutions in corresponding wells were 10-fold diluted with Cl-free HBSS buffer on another 96-well plate serving as the 10× plate.
# 4) Buffer containing 0.1 μCi/mL ^14C-uric acid, at 45 μL/well, and a 10× diluted compound, at 5 μL/well, were added to a third 96-well plate serving as the 1× plate for later use. The concentration of DMSO was 1%.
# 3. Uptake of ^14C-Uric Acid in Cells Stably Expressing hURAT1
# 1) The uptake assay was performed after the cultivated cells in 96-well plates adhered.
# 2) The cells were washed once with pre-heated buffer at 200 μL/well.
# 3) After the wells were dried, corresponding compounds (50 μL/well) and 0.1 μCi/mL ^14C-uric acid were immediately added.
# 4) The plate with the compound was incubated in a 37° C. incubator for 5 min.
# 5) 150 μL of ice-cold buffer was added to each well to terminate the uptake. Each well was washed three times with buffer. The cells were carefully washed to avoid detachment.
# 6) 50 μL of lysis buffer was added to each well, prior to shaking at 900 rpm on an oscillator for 5 min.
# 7) 150 μL of scintillation solution (Microint 40) was added to each well before shaking at 900 rpm for 5 min.
# 8) Finally, the microwell plate was transferred to a MicroBeta Trilux (PerkinElmer Co. Ltd.) for detection.
# The data were analyzed and the IC50 of the quality controls and all test compounds on the plates were calculated using XL-fit software.
row,SMILES,IC50
1,"CCc1nc2ncc(F)cn2c1C(=O)c1cc(Br)c(O)c(Br)c1 [Example 4, (3,5-dibromo-4-hydroxyphenyl)(2-ethyl-6-fluoroimidazo[1,2-a]pyrimidin-3-yl)methanone]",< 50 nM
2,"CCc1nc2ncc(Cl)cn2c1C(=O)c1cc(Br)c(O)c(Br)c1 [Example 6, (6-chloro-2-ethylimidazo[1,2-a]pyrimidin-3-yl)(3,5-dibromo-4-hydroxyphenyl)methanone]",< 50 nM
3,"CCc1nc2ncc(Br)cn2c1C(=O)c1cc(Br)c(O)c(Br)c1 [Example 3, (6-bromo-2-ethylimidazo[1,2-a]pyrimidin-3-yl)(3,5-dibromo-4-hydroxyphenyl)methanone]",< 50 nM
4,"CCc1nc2ncccn2c1C(=O)c1cc(Br)c(O)c(C(F)(F)F)c1 [Example 23, (3-bromo-4-hydroxy-5-(trifluoromethyl)phenyl)(2-ethylimidazo[1,2-a]pyrimidin-3-yl)methanone]",50 to 200 nM
5,"CCc1nc2ncc(F)cn2c1C(=O)c1cc(Br)c(O)c(C#N)c1 [Example 14, 3-bromo-5-(2-ethyl-6-fluoroimidazo[1,2-a]pyrimidine-3-carbonyl)-2-hydroxybenzonitrile]",50 to 200 nM
6,"CCc1nc2ncc(F)cn2c1C(=O)c1cc(Br)c(O)c(C(F)(F)F)c1 [Example 18, (3-bromo-4-hydroxy-5-(trifluoromethyl)phenyl)(2-ethyl-6-fluoroimidazo[1,2-a]pyrimidin-3-yl)methanone]",< 50 nM
7,"CCn1nc2ccc(F)cc2c1C(=O)c1cc(Br)c(O)c(Br)c1 [Example 9, (3,5-dibromo-4-hydroxyphenyl)(2-ethyl-5-fluoro-2H-indazol-3-yl) methanone]",50 to 200 nM
8,"CCn1nc2ccncc2c1C(=O)c1cc(Br)c(O)c(Br)c1 [Example 16, (3,5-dibromo-4-hydroxyphenyl)(2-ethyl-2H-pyrazolo[4,3-c]pyridin-3-yl)methanone]",< 50 nM
9,"CCc1nc2cc(C(F)(F)F)ncn2c1C(=O)c1cc(Br)c(O)c(Br)c1 [Example 7, (3,5-dibromo-4-hydroxyphenyl)(2-ethyl-7-(trifluoromethyl)imidazo[1,2-c]pyrimidin-3-yl)methanone]",50 to 200 nM
10,"CCc1nc2cc(Cl)ncn2c1C(=O)c1cc(Br)c(O)c(Br)c1 [Example 21, (7-chloro-2-ethylimidazo[1,2-f]pyrimidin-3-yl)(3,5-dibromo-4-hydroxyphenyl)methanone]",< 50 nM
11,"CCc1nc2ncccn2c1C(=O)c1cc(Br)c(O)c(Br)c1 [Example 20, 2,6-dibromo-4-([2-ethylimidazo[1,2-a]pyrimidin-3-yl]carbonyl) phenol]",< 50 nM
12,"CCc1nc2ncc(C(F)(F)F)cn2c1C(=O)c1cc(Br)c(O)c(Br)c1 [Example 5, (3,5-dibromo-4-hydroxyphenyl)(2-ethyl-6-(trifluoromethyl)imidazo[1,2-a]pyrimidin-3-yl)methanone]",< 50 nM
13,"CCc1nc2ncccn2c1C(=O)c1cc(Br)c(O)c(C#N)c1 [Example 22, 3-bromo-5-(2-ethylimidazo[1,2-a]pyrimidine-3-carbonyl)-2-hydroxybenzonitrile]",200 to 500 nM
